SMILES	melting point
CC[C@H](C)[C@H](NC(=O)OC)C(=O)NN(Cc1ccc(N2CCCC2)cc1)C[C@H](O)[C@H](Cc1ccccc1)NC(=O)[C@@H](NC(=O)OC)C(C)(C)C [Example 9, 1-[p-(Pyrrolidin-1-yl)phenyl]-4(S)-hydroxy-2-[N-(N-methoxycarbonyl-(L)-isoleucyl)amino]-5(S)-[N-(N-methoxycarbonyl-(L)-tert-leucyl)amino]-6-phenyl-2-azahexane]	158 to 161 °C
COC(=O)N[C@H](C(=O)N[C@@H](Cc1ccccc1)[C@@H](O)CN(Cc1ccc(N2CCCC2)cc1)NC(=O)[C@@H](NC(=O)OC)C(C)(C)C)C(C)C [Example 11, 1-[p-(Pyrrolidin-1-yl)phenyl]-4(S)-hydroxy-2-[N-(N-methoxycarbonyl-(L)-tert-leucyl)amino]-5(S)-[N-(N-methoxycarbonyl-(L)-valyl)amino]-6-phenyl-2-azahexane]	118 to 121 °C (dec.)
